Measurements from patent US20210388018A1, “METHYL AND ETHYL NICOTINATE-RIBOSIDE-5-PHOSPHATES, PREPARATION THEREOF AND METHODS OF USE THEREOF” (Cornell University, priority 2018, published 2021).
Several values for one entry are separate records, joined by “and”; a condition that tells them apart may be missing. Identical values can stand only once.

How the values were obtained:
HEK293 cells [1] = experiment: Cellular NAD at 14 h in HEK293 cells (cycling assay); type: cell-based, human; set-up: unit not given here
Experimental: (§1) Neu2a, HEK293, HEPG2 and C2C12 cells were cultured and the dosage of the corresponding compound was increased by amounts of 0, 100 μM, 400 μM and 800 μM for each cell line. Each experiment was performed in triplicate. Cells were incubated for a period of 14 hr. At termination of incubation, media was removed and cells were treated with trypsin to gently detach and cells counted. Cell pellets were obtained by centrifugation, and then […] of 7% perchloric acid was added to extract NAD. Extracts obtained were then neutralized by addition of NaOH and 250 mM potassium phosphate buffer pH 8.5. NAD was determined by a cycling assay that measures NAD concentrations by comparison to a standard curve (Li et al., 2015).

C2C12 cells = experiment: Cellular NAD at 14 h in C2C12 cells (cycling assay); type: cell-based, murine; set-up: cellular NAD: unit not given here
Experimental: as §1

Neu2a cells = experiment: Cellular NAD at 14 h in Neu2a cells (cycling assay); type: cell-based; set-up: cellular NAD: unit not given here
Experimental: as §1

HEPG2 cells = experiment: Cellular NAD at 14 h in HEPG2 cells (cycling assay); type: cell-based; set-up: unit not given here
Experimental: as §1

[2] = system: tissue NAD concentrations; experiment: Tissue NAD concentrations in mice 4 h after i.p. injection (cycling assay); type: in vivo; settings: 500 mg/kg i.p. single dose, vs PBS control
Experimental: Sterile solutions of O-methyl-NaMN and O-ethylNaMN were prepared by combination with phosphate buffered saline for injection into mice. Mice were injected by intraperitoneal injection at a single dosage of 500 mg/kg. All mice were weighed to achieve correct injection volume. Each group was composed of 5 mice, and mice were sacrificed at 4 hours. Control mice received only PBS. At sacrifice, mice were first injected with an anesthetic dose of ketamine to obtain blood by cardiac puncture. Then mice were euthanized and tissues harvested and frozen immediately in liquid nitrogen.
To determine tissue NAD concentrations, tissues were weighed and pulverized in liquid nitrogen. Perchloric acid (7%) was then added to pulverized tissue samples and neutralized by NaOH and 250 mM potassium phosphate buffer pH 8.5. Samples were pelleted to remove insoluble material. NAD concentrations were determined by cycling assay as published (Li et al., Methods in molecular biology 1241, 39-48, doi:10.1007/978-1-4939-1875-1_4 (2015)). […] This property is desirable, as effects expected from NAD enhancement in muscle include mitochondrial biogenesis and improved insulin sensitivity, as noted for other agents that increase NAD concentrations in this tissue^3. In fact, the extent of NAD raising exceeds those observed for other agents.

Neuro2a cells = experiment: Intracellular NAD+ in Neuro2a cells after NaMN or NR (diaphorase-based assay); type: cell-based; settings: 1 mM, 8 h incubation, FIG. 1
Experimental: (§2) The ability of nicotinic acid mononucleotide, NaMN, to serve as an NAD^+ enhancing agent in mammalian cell lines, Neuro2a and HEK293 cells was examined after an 8 h incubation. NaMN was added to cell growth media at a concentration of 1 mM. All cell treatments were done in duplicate. Nicotinamide riboside (NR) at 1 mM concentration was performed as a positive control. Untreated cells served as negative controls. Cells were treated for the allotted time then harvested by trysin detachment and pelleting. Cells were counted by haemocytometer and then lysed by treatment with 100 μL perchloric acid (7%). Lysates were then neutralized by treatment with NaOH and K2PO4 solutions. NAD^+ concentrations were determined by a diaphorase-based assay. NAD^+ standards were also run to establish a standard curve. The results are graphically depicted in FIG. 1.

HEK293 cells [3] = experiment: Intracellular NAD+ in HEK293 cells after NaMN or NR (diaphorase-based assay); type: cell-based, human; settings: HEK293, 1 mM, 8 h incubation, FIG. 1
Experimental: as §2

HEK-293 cells = experiment: NAD+ concentration in HEK-293 cells after 24 h EtNaMN (NAD+ cycling assay); type: cell-based, human
Experimental: HEK-293 cells were treated with 0 μM, 250 μM, and 500 μM of ((2R,3R,4S,5R)-3,4-dihydroxy-5-(3-(ethoxycarbonyl)pyridin-1-ium-1-yl)tetrahydrofuran-2-yl)methyl hydrogen phosphate (EtNaMN) at an initial density of 500,000 cells per well. After 24 h treatment, the NAD^+ concentration was determined using a known NAD^+ cycling assay (Jacobson, E. L. et al., Arch. Biochem. Biophys., 175: 627-634 (1976)). The cells were washed with PBS, counted by haemocytometry and pelleted. The cells were then treated with 7% perchloric acid, and then neutralized with 1 M NaOH and 500 mM potassium phosphate pH 8.5. NAD^+ contents were then measured on a plate reader using diaphorase and lactate dehydrogenase using Resazurin as a dye that is reduced to rezarufin (emission 560 nm). NAD^+ levels were quantitated using a standard curve using known NAD^+ concentrations. NAD^+ concentrations are determined to nmol NAD^+/10^6 cells.

Row | SMILES | cellular NAD (HEK293 cells [1]; HEK293, 100 μM) | cellular NAD (HEK293 cells [1]; HEK293, 400 μM) | cellular NAD (HEK293 cells [1]; HEK293, 800 μM) | cellular NAD (C2C12 cells; C2C12, 100 μM) | cellular NAD (C2C12 cells; C2C12, 400 μM) | cellular NAD (C2C12 cells; C2C12, 800 μM) | cellular NAD (Neu2a cells; 100 μM) | cellular NAD (Neu2a cells; 400 μM) | cellular NAD (Neu2a cells; 800 μM) | cellular NAD (HEPG2 cells; HEPG2, 100 μM) | cellular NAD (HEPG2 cells; HEPG2, 400 μM) | cellular NAD (HEPG2 cells; HEPG2, 800 μM) | increase in tissue NAD, blood [2] | increase in tissue NAD, kidney [2] | increase in tissue NAD, skeletal muscle [2] | intracellular NAD+ content vs untreated cells (Neuro2a cells) | intracellular NAD+ content vs untreated cells (HEK293 cells [3]) | other results
1 | COC(=O)c1ccc[n+]([C@@H]2O[C@H](COP(=O)([O-])O)[C@H](O)[C@@H]2O)c1 [O-MeNaMN, ((2R,3R,4S,5R)-3,4-dihydroxy-5-(3-(methoxycarbonyl)pyridin-1-ium-1-yl)tetrahydrofuran-2-yl)methyl hydrogen phosphate] | 1178 ± 65 | 947 ± 101 | 1440 ± 204 | 2864 ± 565 | 2596 ± 572 | 2574 ± 355 | 1204 ± 158 | 1523 ± 145 | 2125 ± 187 | 2227 ± 280 | 1663 ± 61 | 2383 ± 155 | Neither ethyl nor methyl derivatives appeared active as NAD enhancers in blood | ~2.5 fold | unique capability to increase skeletal muscle NAD concentrations | – | – | increase in cellular NAD concentrations vs control (C2C12 cells; all concentrations tested (100, 400, 800 μM), cell line not given, figures fit C2C12): at least 70%; increase in cellular NAD concentrations vs control (fold, in words) (Neu2a cells; 800 μM): more than two fold
2 | NC(=O)c1ccc[n+]([C@@H]2O[C@H](CO)[C@@H](O)[C@H]2O)c1 [NR, Nicotinamide riboside] | – | – | – | – | – | – | – | – | – | – | – | – | – | – | – | increased NAD^+ contents in cells | increased NAD^+ contents in cells | –
3 | CCOC(=O)c1ccc[n+]([C@@H]2O[C@H](COP(=O)([O-])O)[C@H](O)[C@@H]2O)c1 [O-EtNaMN, ((2R,3R,4S,5R)-3,4-dihydroxy-5-(3-(ethoxycarbonyl)pyridin-1-ium-1-yl)tetrahydrofuran-2-yl)methyl hydrogen phosphate] | 1128 ± 95 | 1144 ± 132 | 1133 ± 168 | 1886 ± 183 | 1766 ± 69.5 | 2320 ± 208 | 1624 ± 24 | 1727 ± 40.8 | 1744 ± 151 | 2222 ± 99 | 2331 ± 429 | 2287 ± 181 | increases in blood were not apparent | approximately twofold | no apparent effect | – | – | NAD+ Concentration (HEK-293 cells; HEK293, 250 μM EtNaMN): 220 μM ± 42 μM; NAD+ Concentration relative to control (HEK-293 cells; HEK293, 250 μM EtNaMN): 1.29 and 1.29 ± 0.24; NAD+ Concentration (HEK-293 cells; HEK293, 500 μM EtNaMN): 270 μM ± 35 μM; NAD+ Concentration relative to control (HEK-293 cells; HEK293, 500 μM EtNaMN): 1.59 and 1.59 ± 0.21; increase in NAD concentrations vs control (C2C12 cells; 800 μM, cell line not given, figures fit C2C12): 68%; increase in cellular NAD vs control (Neu2a cells; 100 μM): ~40%; increase in cellular NAD concentrations vs control (Neu2a cells; 800 μM): 50%; increase in tissue NAD, liver ([2]; liver): greater than twofold
4 | O=C(O)c1ccc[n+]([C@@H]2O[C@H](COP(=O)(O)O)[C@@H](O)[C@H]2O)c1 [NaMN, nicotinic acid mononucleotide] | – | – | – | – | – | – | – | – | – | – | – | – | – | – | – | No intracellular increase in NAD^+ | No intracellular increase in NAD^+ | –
